{
  "source": "patent US6867197B1",
  "about": "“Method of targeting conjugate molecules to mitochondria” (Mitokor, priority 1995, dated 2005)",
  "origin": "cited, not measured here",
  "tested_on": "mitochondria",
  "conditions": "high concentrations; NAO is a mitochondrial toxin at these concentrations",
  "data": [
    {"smiles": "CCCCCCCCC[n+]1c2cc(N(C)C)ccc2cc2ccc(N(C)C)cc21", "note": "[NAO, 10N-nonylacridine orange]", "values": [
      {"measurement": "concentrations at which electron transport, ATP hydrolysis and Pi-transport are inhibited and respiration disrupted", "result": "3 to 10", "unit": "µM"}
    ]}
  ]
}
